Assay results: US7981903B2, “2-[2-{phenylamino}-1H-pyrrolo[2,3-D]pyrimidin-4-yl)amino] benzamide derivatives as IGF-1R inhibitors for the treatment of cancer” (GlaxoSmithKline LLC, priority 2007, dated 2011)

Experiments:
human IGF1R (hIGF1R) = molecular target: T1, human IGF1R (hIGF1R) (Homo sapiens, UniProt P08069); test: TR-FRET kinase assay of purified hIGF1R; type: biochemical; details: activated hIGF1R 0.5 nM, 10 μM ATP, values given as pIC50 category, read-out: IGF-1R pIC50 (converted)
T1 construct: containing amino acid residues 957-1367 of human IGF1R; made in house; host or cells: Sf9 cells (baculovirus)

Colo205 = test: Inhibition of cell proliferation (CellTiter-Glo or InCell analyzer), Colo205; type: cell-based; details: Homo sapiens, COLO 205, 72 h / 3 days, values given as IC50 category
Summary of the method: In one

NCI-H929 = test: Inhibition of cell proliferation (CellTiter-Glo or InCell analyzer), NCI-H929; type: cell-based; details: Homo sapiens, 72 h / 3 days, values given as IC50 category
Summary of the method: In one

[1] = molecular target: T2, NIH-3T3 cells overexpressing human IGF-1R (Homo sapiens, UniProt P08069); test: IGF-1R cellular autophosphorylation (DELFIA); type: cell-based
T2 construct: expressed in transfected cells; host or cells: NIH-3T3 (mouse fibroblasts)
Summary of the method: (§1)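 Receptor autophosphorylation measured by DELFIA, capturing IGF-1R or IRβ and detecting with europium anti-pTyr, reported as percent of IGF-1- or insulin-stimulated signal. Compounds (30 uM to 1.5 nM) added 2 h before ligand, then 15 min stimulation (IGF-1 30 ng/ml or insulin 3 ug/ml).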

[2] = molecular target: T3, NIH-3T3 cells overexpressing human IR (Homo sapiens, UniProt P06213); test: IR cellular autophosphorylation (DELFIA); type: cell-based; details: 2 h compound, insulin 3 ug/ml for 15 minutes, IC50 category
T3 construct: expressed in transfected cells; host or cells: NIH-3T3 (mouse fibroblasts)
Summary of the method: as §1

T3 sequence (P06213 28-1382): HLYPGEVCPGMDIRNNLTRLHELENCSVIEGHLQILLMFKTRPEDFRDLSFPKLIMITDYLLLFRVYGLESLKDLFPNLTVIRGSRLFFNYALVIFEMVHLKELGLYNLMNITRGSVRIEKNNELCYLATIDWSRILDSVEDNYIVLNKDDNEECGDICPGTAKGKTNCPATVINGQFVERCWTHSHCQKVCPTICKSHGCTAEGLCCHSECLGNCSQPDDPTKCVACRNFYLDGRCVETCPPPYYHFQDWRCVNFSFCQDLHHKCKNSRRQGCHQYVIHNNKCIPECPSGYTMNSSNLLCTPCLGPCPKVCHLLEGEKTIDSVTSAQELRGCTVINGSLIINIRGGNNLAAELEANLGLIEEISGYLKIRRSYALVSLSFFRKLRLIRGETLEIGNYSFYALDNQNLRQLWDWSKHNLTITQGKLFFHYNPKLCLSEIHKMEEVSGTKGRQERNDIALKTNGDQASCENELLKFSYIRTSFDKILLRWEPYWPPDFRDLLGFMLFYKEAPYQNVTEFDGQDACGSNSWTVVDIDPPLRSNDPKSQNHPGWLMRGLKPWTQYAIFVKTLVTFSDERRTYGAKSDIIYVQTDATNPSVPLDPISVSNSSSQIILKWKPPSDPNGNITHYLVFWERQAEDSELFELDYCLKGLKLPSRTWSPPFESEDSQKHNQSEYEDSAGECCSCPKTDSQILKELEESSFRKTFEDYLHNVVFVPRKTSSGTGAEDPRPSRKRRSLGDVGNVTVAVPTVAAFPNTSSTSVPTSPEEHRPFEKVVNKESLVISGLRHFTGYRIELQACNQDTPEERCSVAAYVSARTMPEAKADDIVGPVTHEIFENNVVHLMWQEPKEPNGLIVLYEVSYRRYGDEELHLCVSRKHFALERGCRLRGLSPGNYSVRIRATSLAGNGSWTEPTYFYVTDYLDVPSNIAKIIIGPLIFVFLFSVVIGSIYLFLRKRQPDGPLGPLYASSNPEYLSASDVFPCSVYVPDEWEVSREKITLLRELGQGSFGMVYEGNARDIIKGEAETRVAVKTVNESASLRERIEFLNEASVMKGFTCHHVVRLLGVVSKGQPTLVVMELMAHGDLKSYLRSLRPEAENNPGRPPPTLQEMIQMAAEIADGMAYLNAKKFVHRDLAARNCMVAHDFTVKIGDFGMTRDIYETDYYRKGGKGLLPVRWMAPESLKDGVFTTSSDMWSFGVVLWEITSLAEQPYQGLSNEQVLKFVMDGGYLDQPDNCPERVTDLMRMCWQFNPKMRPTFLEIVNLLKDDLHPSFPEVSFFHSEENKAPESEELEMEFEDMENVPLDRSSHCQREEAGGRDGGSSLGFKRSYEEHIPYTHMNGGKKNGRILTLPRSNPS
T1 sequence (P08069 957-1367): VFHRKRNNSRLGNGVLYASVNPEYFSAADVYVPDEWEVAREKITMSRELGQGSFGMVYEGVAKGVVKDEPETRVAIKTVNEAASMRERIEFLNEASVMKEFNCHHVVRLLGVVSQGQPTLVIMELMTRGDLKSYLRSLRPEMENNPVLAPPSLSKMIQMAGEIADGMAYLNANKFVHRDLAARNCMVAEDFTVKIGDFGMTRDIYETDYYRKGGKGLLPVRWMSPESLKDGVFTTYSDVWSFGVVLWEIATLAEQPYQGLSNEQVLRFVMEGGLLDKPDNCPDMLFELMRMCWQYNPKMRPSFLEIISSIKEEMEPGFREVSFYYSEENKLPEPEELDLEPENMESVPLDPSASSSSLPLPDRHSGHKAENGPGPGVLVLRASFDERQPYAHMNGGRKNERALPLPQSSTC
T2 sequence (P08069 31-1367): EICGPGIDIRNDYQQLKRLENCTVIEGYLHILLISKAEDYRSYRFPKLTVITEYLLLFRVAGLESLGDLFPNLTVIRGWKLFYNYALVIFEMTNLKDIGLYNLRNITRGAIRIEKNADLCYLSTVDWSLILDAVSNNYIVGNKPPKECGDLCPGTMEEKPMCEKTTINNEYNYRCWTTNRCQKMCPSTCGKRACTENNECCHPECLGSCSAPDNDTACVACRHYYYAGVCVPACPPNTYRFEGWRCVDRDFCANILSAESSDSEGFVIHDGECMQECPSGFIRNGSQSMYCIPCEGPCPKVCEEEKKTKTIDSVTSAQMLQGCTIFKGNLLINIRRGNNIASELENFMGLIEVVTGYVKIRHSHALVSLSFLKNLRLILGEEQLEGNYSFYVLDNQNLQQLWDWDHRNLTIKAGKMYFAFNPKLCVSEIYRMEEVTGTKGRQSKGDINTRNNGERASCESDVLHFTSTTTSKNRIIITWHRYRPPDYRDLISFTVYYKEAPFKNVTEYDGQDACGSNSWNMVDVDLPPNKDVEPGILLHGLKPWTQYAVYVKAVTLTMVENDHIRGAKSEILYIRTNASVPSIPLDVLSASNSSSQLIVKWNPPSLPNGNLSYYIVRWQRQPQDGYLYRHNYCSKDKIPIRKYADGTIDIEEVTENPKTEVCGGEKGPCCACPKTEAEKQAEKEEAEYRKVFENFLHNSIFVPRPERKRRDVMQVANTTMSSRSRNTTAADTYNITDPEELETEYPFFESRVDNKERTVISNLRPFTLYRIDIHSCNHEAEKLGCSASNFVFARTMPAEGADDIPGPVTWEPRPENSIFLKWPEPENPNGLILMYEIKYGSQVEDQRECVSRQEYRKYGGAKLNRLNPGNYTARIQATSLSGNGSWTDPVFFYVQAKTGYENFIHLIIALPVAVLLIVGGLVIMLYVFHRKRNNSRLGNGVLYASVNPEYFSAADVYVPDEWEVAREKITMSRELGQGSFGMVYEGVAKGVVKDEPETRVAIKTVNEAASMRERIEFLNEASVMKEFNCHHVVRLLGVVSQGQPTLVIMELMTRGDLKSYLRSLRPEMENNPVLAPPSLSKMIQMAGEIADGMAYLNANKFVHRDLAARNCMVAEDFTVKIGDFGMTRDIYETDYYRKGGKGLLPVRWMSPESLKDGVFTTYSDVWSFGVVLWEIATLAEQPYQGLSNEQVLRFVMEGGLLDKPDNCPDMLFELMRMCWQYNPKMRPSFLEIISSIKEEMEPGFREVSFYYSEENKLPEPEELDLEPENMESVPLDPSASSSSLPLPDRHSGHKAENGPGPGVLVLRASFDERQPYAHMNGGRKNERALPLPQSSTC

IC50 (human IGF1R (hIGF1R))	IC50 (Colo205)	IC50 (NCI-H929)	IC50 [1]	IC50 [2]	Structure (SMILES)
1.26 to 3.98 nM	250 to 1000 nM	< 250 nM	< 100 nM	< 100 nM	CCN(CC)CC(=O)N1CCc2cc(OC)c(Nc3nc(Nc4cccc(F)c4C(N)=O)c4cc[nH]c4n3)cc21 [Example 136, 2-[(2-{[1-(N,N-diethylglycyl)-5-(methyloxy)-2,3-dihydro-1H-indol-6-yl]amino}-1H-pyrrolo[2,3-d]pyrimidin-4-yl)amino]-6-fluorobenzamide]
1.26 to 3.98 nM	250 to 1000 nM	< 250 nM	> 500 nM	> 500 nM	CNC(=O)c1c(F)cccc1Nc1nc(Nc2cc(NC(=O)CN(C)C)ccc2OC)nc2[nH]ccc12 [Example 245, 2-[(2-{[5-[(N,N-dimethylglycyl)amino]-2-(methyloxy)phenyl]amino}-1H-pyrrolo[2,3-d]pyrimidin-4-yl)amino]-6-fluoro-N-methylbenzamide]
0.251 to 1 nM	< 250 nM	< 250 nM	< 100 nM	< 100 nM	CCCN1CCC=C(c2ccc(Nc3nc(Nc4cc(F)ccc4C(N)=O)c4cc[nH]c4n3)c(OC)c2)C1 [Example 70, 4-fluoro-2-[(2-{[2-(methyloxy)-4-(1-propyl-1,2,5,6-tetrahydro-3-pyridinyl)phenyl]amino}-1H-pyrrolo[2,3-d]pyrimidin-4-yl)amino]benzamide]
1.26 to 3.98 nM	< 250 nM	< 250 nM	< 100 nM	100 to 500 nM	COc1cc(N2CCC(N3CCN(S(C)(=O)=O)CC3)CC2)ccc1Nc1nc(Nc2cccc(F)c2C(N)=O)c2cc[nH]c2n1 [Example 113, 2-fluoro-6-({2-[(2-(methyloxy)-4-{4-[4-(methylsulfonyl)-1-piperazinyl]-1-piperidinyl}phenyl)amino]-1H-pyrrolo[2,3-d]pyrimidin-4-yl}amino)benzamide]
1.26 to 3.98 nM	250 to 1000 nM	< 250 nM	100 to 500 nM	< 100 nM	CCC(C)N1CCc2cc(OC)c(Nc3nc(Nc4cccc(F)c4C(N)=O)c4cc[nH]c4n3)cc2C1 (centres unmarked) [Example 237, 2-fluoro-6-[(2-{[6-(methyloxy)-2-(1-methylpropyl)-1,2,3,4-tetrahydro-7-isoquinolinyl]amino}-1H-pyrrolo[2,3-d]pyrimidin-4-yl)amino]benzamide]
1.26 to 3.98 nM	> 1000 nM	250 to 1000 nM	100 to 500 nM	> 500 nM	COc1cc2c(cc1Nc1nc(Nc3cc(F)cc(F)c3C(=O)NCC(C)C)c3cc[nH]c3n1)N(C(=O)CN(C)C)CC2 [Example 154, 2-[(2-{[1-(N,N-dimethylglycyl)-5-(methyloxy)-2,3-dihydro-1H-indol-6-yl]amino}-1H-pyrrolo[2,3-d]pyrimidin-4-yl)amino]-4,6-difluoro-N-(2-methylpropyl)benzamide]

More lines, now with the values behind:

Structure (SMILES)	IC50 (human IGF1R (hIGF1R))	IC50 (Colo205)	IC50 (NCI-H929)	IC50 [1]	IC50 [2]
COc1cc(N2CCN(C(C)C)CC2)ccc1Nc1nc(Nc2cc(Cl)cc(F)c2C(N)=O)c2cc[nH]c2n1 [Example 93, 4-chloro-2-fluoro-6-[(2-{[4-[4-(1-methylethyl)-1-piperazinyl]-2-(methyloxy)phenyl]amino}-1H-pyrrolo[2,3-d]pyrimidin-4-yl)amino]benzamide]	1.26 to 3.98 nM	250 to 1000 nM	< 250 nM	100 to 500 nM	100 to 500 nM
COc1cc(N2CCN(C(C)C)CC2)ccc1Nc1nc(Nc2ccc(F)c(F)c2C(N)=O)c2cc[nH]c2n1 [Example 94, 2,3-difluoro-6-[(2-{[4-[4-(1-methylethyl)-1-piperazinyl]-2-(methyloxy)phenyl]amino}-1H-pyrrolo[2,3-d]pyrimidin-4-yl)amino]benzamide]	1.26 to 3.98 nM	< 250 nM	< 250 nM	100 to 500 nM	100 to 500 nM
CNC(=O)c1c(F)cccc1Nc1nc(Nc2cc3c(cc2OC)CCN3C(=O)CN(C)C)nc2[nH]cc(F)c12 [Example 253, 2-[(2-{[1-(N,N-dimethylglycyl)-5-(methyloxy)-2,3-dihydro-1H-indol-6-yl]amino}-5-fluoro-1H-pyrrolo[2,3-d]pyrimidin-4-yl)amino]-6-fluoro-N-methylbenzamide]	1.26 to 3.98 nM	250 to 1000 nM	250 to 1000 nM	100 to 500 nM	100 to 500 nM
CNC(=O)c1c(F)cccc1Nc1nc(Nc2cc3c(cc2OC)N(C(=O)CN(C)C)CC3)nc2[nH]ccc12 [Example 198, 2-[(2-{[1-(N,N-dimethylglycyl)-6-(methyloxy)-2,3-dihydro-1H-indol-5-yl]amino}-1H-pyrrolo[2,3-d]pyrimidin-4-yl)amino]-6-fluoro-N-methylbenzamide]	1.26 to 3.98 nM	< 250 nM	250 to 1000 nM	> 500 nM	> 500 nM
